Results on one molecule are retold here after US20020013350A1 (priority 1998, published 2002).

The test has as its system cabbage black rot bacterium (Xanthomonas campestris). Briefly: Control test on cabbage black rot. Format: in vivo. Particulars: 350 ppm, cabbage sprayed four times at intervals of 7 days. The source says: Two days after the second spraying, the cabbage was inoculated with an aqueous suspension of cabbage black rot bacterium (Xanthomonas campestris) by the method of spraying. Two weeks after the final spraying, the cabbage was investigated to calculated the degree of disease occurrence according to the following criterion. In the untreated plot, the degree of disease occurrence was 44.7.
Degree of disease occurrence=Σ(Number of hills at every degree of occurrence)×100÷(Number of hills investigated×3)
From the degree of disease occurrence, controlling degree was calculated according to the following equation. […] [formula]

For `Oc1cccc2cccnc12.[Cu]` [8-Hydroxyquinoline-copper, 8-Hydroxyquinoline copper], the “Controlling degreee (%)” value is on record as 59%, the “Degree of disease occurrence” value is 18.2 and the “Percentage of diseased hills (%)” value stood at 54.5%.
